# Reference: patent US6384254B1, “Quaternary ammonium salt-containing polysiloxane, making method, and fiber or fabric treating agent composition” (Shin-Etsu Chemical Co., Ltd., priority 1999, dated 2002)
# Tested on: stephelococcus Aureus
# Test: percentage loss of bacteria on treated cloth after ten launderings, shaking flask method
# Format: cell-based
# Details: polyester/cotton (65%/35%) cloth dipped in treating bath (2.0 wt% silicone solids; CE1 3.5 wt% solids), laundered ten times by 103 method of JIS L-0217
# Experimental: The emulsion was diluted to an aqueous solution having a silicone solid concentration of 2.0% by weight. A polyester/cotton (65%/35%) mixed broad-cloth was dipped in the solution for one minute, nipped through rolls at a nip rate of 100%, dried at 135° C. for one minute and heat treated at 165° C. for 2 minutes. The thus treated cloth was laundered ten times in accordance with the 103 method of JIS L-0217 whereupon a percentage loss of stephelococcus Aureus was compared by the shaking flask method. The texture of the treated cloth was examined by finger touch before and after washing.
# For comparison purpose, using a 38% solids methanol solution of 3-(trimethoxysilyl)propyldimethyloctadecylammonium chloride, a 3.5 wt% solids aqueous solution was prepared. A similar experiment was carried out. This is Comparative Example 1.
structure (smiles),measurement,value
"CCCCCCCCCCCCCCCCCC[N+](C)(C)CCC[Si](OC)(OC)OC.[Cl-] [CE1, 3-(trimethoxysilyl)propyldimethyloctadecylammonium chloride]",Bacteria loss after washing (%),35%
